Measurements: ChEMBL document CHEMBL5252509, “In depth analysis of kinase cross screening data to identify chemical starting points for inhibition of the Nek family of kinases” (Medchemcomm, 2018)

Key:
[1] = molecular target: T1, Serine/threonine-protein kinase Nek2 (Homo sapiens) (UniProt P51955); test: Inhibition of NEK2 (unknown origin) at 1 uM relative to control
T1 sequence (whole entry): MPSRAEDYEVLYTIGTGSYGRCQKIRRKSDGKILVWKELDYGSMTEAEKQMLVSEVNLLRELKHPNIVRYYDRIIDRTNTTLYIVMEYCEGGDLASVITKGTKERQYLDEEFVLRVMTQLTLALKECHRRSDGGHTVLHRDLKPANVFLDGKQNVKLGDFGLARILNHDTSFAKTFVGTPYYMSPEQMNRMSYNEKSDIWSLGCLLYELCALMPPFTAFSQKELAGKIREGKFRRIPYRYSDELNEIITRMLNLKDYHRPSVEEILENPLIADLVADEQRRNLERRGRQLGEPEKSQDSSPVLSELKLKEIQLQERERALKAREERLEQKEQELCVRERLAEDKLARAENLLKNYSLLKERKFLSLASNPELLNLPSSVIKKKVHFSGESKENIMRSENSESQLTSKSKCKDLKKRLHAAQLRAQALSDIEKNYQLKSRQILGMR

[2] = molecular target: T2, Serine/threonine-protein kinase Nek5 (Homo sapiens) (UniProt Q6P3R8); test: Inhibition of NEK5 (unknown origin) at 1 uM relative to control
T2 sequence (whole entry): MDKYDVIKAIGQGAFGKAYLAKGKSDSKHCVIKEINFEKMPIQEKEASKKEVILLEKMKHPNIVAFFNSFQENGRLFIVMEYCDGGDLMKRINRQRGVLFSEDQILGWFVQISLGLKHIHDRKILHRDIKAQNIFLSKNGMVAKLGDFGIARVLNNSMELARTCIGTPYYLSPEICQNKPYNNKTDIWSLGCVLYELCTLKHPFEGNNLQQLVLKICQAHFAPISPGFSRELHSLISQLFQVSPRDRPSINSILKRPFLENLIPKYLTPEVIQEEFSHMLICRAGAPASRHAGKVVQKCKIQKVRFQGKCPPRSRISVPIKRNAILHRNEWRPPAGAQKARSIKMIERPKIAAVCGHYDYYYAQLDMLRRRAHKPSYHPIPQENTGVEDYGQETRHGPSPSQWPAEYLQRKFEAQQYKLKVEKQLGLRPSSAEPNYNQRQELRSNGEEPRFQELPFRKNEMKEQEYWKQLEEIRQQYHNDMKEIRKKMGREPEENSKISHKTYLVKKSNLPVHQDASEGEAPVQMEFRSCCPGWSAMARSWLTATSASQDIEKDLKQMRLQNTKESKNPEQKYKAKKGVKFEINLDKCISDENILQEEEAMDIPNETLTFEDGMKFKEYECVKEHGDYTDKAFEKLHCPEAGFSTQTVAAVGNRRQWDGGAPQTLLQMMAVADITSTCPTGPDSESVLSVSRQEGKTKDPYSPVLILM

[3] = molecular target: Serine/threonine-protein kinase Nek6 (Homo sapiens) (UniProt Q9HC98); test: Inhibition of NEK6 (unknown origin) at 1 uM relative to control
Sequence of Serine/threonine-protein kinase Nek6 (Homo sapiens) (Q9HC98 whole entry): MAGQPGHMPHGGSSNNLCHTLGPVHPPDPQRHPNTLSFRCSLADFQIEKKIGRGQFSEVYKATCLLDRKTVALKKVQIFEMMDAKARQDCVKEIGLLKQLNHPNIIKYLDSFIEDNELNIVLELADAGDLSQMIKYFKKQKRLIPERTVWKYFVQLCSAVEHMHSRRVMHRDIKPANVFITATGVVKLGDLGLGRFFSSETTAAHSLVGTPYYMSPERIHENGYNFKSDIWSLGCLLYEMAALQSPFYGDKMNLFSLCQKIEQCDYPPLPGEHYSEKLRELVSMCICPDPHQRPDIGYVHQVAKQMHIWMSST

[4] = molecular target: Serine/threonine-protein kinase Nek7 (Homo sapiens) (UniProt Q8TDX7); test: Inhibition of NEK7 (unknown origin) at 1 uM relative to control
Sequence of Serine/threonine-protein kinase Nek7 (Homo sapiens) (Q8TDX7 whole entry, looked up): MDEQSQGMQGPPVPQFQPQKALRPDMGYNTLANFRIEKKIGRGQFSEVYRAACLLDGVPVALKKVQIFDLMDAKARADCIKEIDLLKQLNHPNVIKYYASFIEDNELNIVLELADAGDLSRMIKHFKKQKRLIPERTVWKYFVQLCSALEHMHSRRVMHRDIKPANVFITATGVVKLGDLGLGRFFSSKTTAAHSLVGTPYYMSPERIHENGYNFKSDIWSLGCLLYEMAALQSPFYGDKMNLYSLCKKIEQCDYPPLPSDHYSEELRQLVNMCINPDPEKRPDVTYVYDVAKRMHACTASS

[5] = molecular target: T3, Serine/threonine-protein kinase Nek9 (Homo sapiens) (UniProt Q8TD19); test: Inhibition of NEK9 (unknown origin) at 1 uM relative to control
T3 sequence (whole entry): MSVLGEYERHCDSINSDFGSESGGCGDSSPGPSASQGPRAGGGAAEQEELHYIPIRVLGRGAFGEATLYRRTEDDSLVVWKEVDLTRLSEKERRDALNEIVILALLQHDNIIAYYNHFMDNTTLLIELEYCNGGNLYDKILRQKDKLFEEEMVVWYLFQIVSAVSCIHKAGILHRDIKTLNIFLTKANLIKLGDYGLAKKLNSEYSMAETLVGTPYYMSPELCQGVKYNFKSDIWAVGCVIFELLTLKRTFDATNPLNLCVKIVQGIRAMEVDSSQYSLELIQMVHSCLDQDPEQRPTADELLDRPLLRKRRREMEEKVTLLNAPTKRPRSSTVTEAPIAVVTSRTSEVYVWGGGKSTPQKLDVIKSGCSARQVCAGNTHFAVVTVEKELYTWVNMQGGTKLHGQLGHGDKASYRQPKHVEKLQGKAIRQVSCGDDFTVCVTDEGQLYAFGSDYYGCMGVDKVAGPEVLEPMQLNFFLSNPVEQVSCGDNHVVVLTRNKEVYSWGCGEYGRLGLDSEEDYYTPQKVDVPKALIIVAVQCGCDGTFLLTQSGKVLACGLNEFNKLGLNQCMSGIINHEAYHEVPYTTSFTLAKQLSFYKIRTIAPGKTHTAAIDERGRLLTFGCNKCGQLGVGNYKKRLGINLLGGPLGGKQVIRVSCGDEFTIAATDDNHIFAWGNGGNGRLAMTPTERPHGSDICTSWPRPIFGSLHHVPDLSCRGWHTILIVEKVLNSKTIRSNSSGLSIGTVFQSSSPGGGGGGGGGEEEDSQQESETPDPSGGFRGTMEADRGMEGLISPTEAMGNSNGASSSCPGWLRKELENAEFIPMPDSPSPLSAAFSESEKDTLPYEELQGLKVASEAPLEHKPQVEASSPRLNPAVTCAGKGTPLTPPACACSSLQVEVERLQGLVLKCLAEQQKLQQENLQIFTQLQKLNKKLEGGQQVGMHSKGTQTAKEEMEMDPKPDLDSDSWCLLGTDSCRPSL

[6] = molecular target: T4, Serine/threonine-protein kinase Nek11 (Homo sapiens) (UniProt Q8NG66); test: Inhibition of NEK11 (unknown origin) at 1 uM relative to control
T4 sequence (whole entry): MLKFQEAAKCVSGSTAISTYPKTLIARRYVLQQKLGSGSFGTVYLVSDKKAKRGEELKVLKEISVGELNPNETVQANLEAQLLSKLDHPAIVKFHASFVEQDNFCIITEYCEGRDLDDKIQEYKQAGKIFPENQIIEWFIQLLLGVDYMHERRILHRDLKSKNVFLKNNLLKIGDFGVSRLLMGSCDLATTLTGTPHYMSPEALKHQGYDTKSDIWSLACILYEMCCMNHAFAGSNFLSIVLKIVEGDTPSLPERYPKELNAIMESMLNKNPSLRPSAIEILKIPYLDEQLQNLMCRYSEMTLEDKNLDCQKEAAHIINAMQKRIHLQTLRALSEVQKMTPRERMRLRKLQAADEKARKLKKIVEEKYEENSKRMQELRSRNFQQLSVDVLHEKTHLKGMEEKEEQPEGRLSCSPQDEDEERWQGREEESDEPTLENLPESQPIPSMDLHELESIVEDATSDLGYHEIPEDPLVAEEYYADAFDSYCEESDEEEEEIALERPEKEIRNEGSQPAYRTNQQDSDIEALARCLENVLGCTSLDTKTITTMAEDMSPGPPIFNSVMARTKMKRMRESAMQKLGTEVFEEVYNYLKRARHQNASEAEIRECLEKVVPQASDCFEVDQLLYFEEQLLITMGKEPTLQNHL

## Cc1ccc(CC(=O)N2CCc3cc(-c4cn(C)c5ncnc(N)c45)ccc32)cc1
[1]
  inhibition: 96.9%
[2]
  inhibition: 45%
[3]
  inhibition: 19%
[4]
  inhibition: 0%
[5]
  inhibition: 20%
[6]
  inhibition: 59%

## O=c1[nH]ccc2nc(N[C@@H]3CCCNC3)nc(Nc3ccc(S(=O)(=O)N4CCOCC4)cc3)c12
[1]
  inhibition: 20%
[2]
  inhibition: 49%
[3]
  inhibition: 54%
[4]
  inhibition: 65%
[5]
  inhibition: 86%
[6]
  inhibition: 100%

## Nc1ncc(-c2cn[nH]c2)c2scc(-c3ccc4c(c3)CCN4C(=O)Cc3ccccc3)c12
[1]
  inhibition: 85%
[2]
  inhibition: 21%
[3]
  inhibition: 3%
[4]
  inhibition: 0%
[5]
  inhibition: 0%
[6]
  inhibition: 87%

## COc1ccc(C2=C(Nc3cccc(C(=O)O)c3)C(=O)NC2=O)cc1
[1]
  inhibition: 10%
[2]
  inhibition: 0%
[3]
  inhibition: 13%
[4]
  inhibition: 28%
[5]
  inhibition: 2%
[6]
  inhibition: 30%

## COc1cccc(CC(=O)N2CCc3cc(-c4cn(C)c5ncnc(N)c45)ccc32)c1
[1]
  inhibition: 74%
[2]
  inhibition: 24%
[3]
  inhibition: 18%
[4]
  inhibition: 11%
[5]
  inhibition: 25%
[6]
  inhibition: 49%

## CC(C)c1nc(-c2cccc(NS(=O)(=O)c3c(F)cccc3F)c2F)c(-c2ccnc(Nc3ccc(N4CCOCC4)nc3)n2)s1
[1]
  inhibition: 0.9%
[2]
  inhibition: 24%
[3]
  inhibition: 0.9%
[4]
  inhibition: 7.1%
[5]
  inhibition: 6.4%
[6]
  inhibition: 1.4%

## Cn1cc(-c2ccc3c(c2)CCN3C(=O)Cc2cccc(F)c2)c2c(N)ncnc21
[1]
  inhibition: 73%
[2]
  inhibition: 28%
[3]
  inhibition: 0%
[4]
  inhibition: 0%
[5]
  inhibition: 0%
[6]
  inhibition: 8%

## NCCNS(=O)(=O)c1ccc(-c2ccnc3[nH]ccc23)cc1
[1]
  inhibition: 0%
[2]
  inhibition: 44%
[3]
  inhibition: 4%
[4]
  inhibition: 0%
[5]
  inhibition: 22%
[6]
  inhibition: 24%

## Cn1cc(-c2cnc(N)c3c(-c4ccc5c(c4)CCN5C(=O)Cc4ccccc4)csc23)cn1
[1]
  inhibition: 28%
[2]
  inhibition: 5%
[3]
  inhibition: 0%
[4]
  inhibition: 0%
[5]
  inhibition: 0%
[6]
  inhibition: 47%

## CN(C)CCNS(=O)(=O)c1ccc(-c2ccnc3[nH]ccc23)cc1
[1]
  inhibition: 0%
[2]
  inhibition: 1%
[3]
  inhibition: 1%
[4]
  inhibition: 0%
[5]
  inhibition: 0%
[6]
  inhibition: 0%

## Cn1cc(-c2ccc3c(c2)CCN3C(=O)Cc2ccccc2Cl)c2c(N)ncnc21
[1]
  inhibition: 79%
[2]
  inhibition: 7%
[3]
  inhibition: 3%
[4]
  inhibition: 17%
[5]
  inhibition: 33%
[6]
  inhibition: 0%

## COc1cccc(C2=C(Nc3ccc(Cl)c(C(=O)O)c3)C(=O)NC2=O)c1
[1]
  inhibition: 0%
[2]
  inhibition: 3%
[3]
  inhibition: 0%
[4]
  inhibition: 0%
[5]
  inhibition: 0%
[6]
  inhibition: 27%

## Cn1cc(-c2ccc3c(c2)CCN3C(=O)Cc2cccc(C(F)(F)F)c2)c2c(N)ncnc21
[1]
  inhibition: 15%
[2]
  inhibition: 0%
[3]
  inhibition: 0%
[4]
  inhibition: 11%
[5]
  inhibition: 8%
[6]
  inhibition: 14%

## Nc1nccc2scc(-c3ccc4c(c3)CCN4C(=O)Cc3cc(F)ccc3F)c12
[1]
  inhibition: 7%
[2]
  inhibition: 6%
[3]
  inhibition: 0%
[4]
  inhibition: 0%
[5]
  inhibition: 4%
[6]
  inhibition: 9%

## O=C1NC(=O)C(c2ccccc2Cl)=C1Nc1cccc(Cl)c1
[1]
  inhibition: 10%
[2]
  inhibition: 7%
[3]
  inhibition: 1%
[4]
  inhibition: 16%
[5]
  inhibition: 20%
[6]
  inhibition: 0%

## COc1ccc(Nc2ncc(C#N)c(Nc3ccccc3C(N)=O)n2)cc1N1CCN(C)CC1
[1]
  inhibition: 0.4%
[2]
  inhibition: 0%
[3]
  inhibition: 0.1%
[4]
  inhibition: 2.6%
[5]
  inhibition: 1.8%
[6]
  inhibition: 2.5%

## Cn1cc(-c2ccc3c(c2)CCN3C(=O)Cc2cc(F)cc(C(F)(F)F)c2)c2c(N)ncnc21
[1]
  inhibition: 18%
[2]
  inhibition: 0%
[3]
  inhibition: 6%
[4]
  inhibition: 0%
[5]
  inhibition: 25%
[6]
  inhibition: 8%

## CS(=O)(=O)Nc1ccc(-c2ccnc3[nH]ccc23)cc1
[1]
  inhibition: 0%
[2]
  inhibition: 2%
[3]
  inhibition: 0%
[4]
  inhibition: 10%
[5]
  inhibition: 14%
[6]
  inhibition: 17%

## CC(C)c1nc(-c2cccc(NS(=O)(=O)c3ccccc3)c2)c(-c2ccnc(Nc3ccc4c(c3)CN(C)CC4)n2)s1
[1]
  inhibition: 66%
[2]
  inhibition: 100%
[3]
  inhibition: 100%
[4]
  inhibition: 100%
[5]
  inhibition: 49%
[6]
  inhibition: 2.3%

## COc1cccc(C2=C(Nc3cccc(O)c3)C(=O)NC2=O)c1
[1]
  inhibition: 0%
[2]
  inhibition: 2%
[3]
  inhibition: 0%
[4]
  inhibition: 7%
[5]
  inhibition: 15%
[6]
  inhibition: 0%

## Nc1ncc(-c2cccnc2)c2scc(-c3ccc4c(c3)CCN4C(=O)Cc3ccccc3)c12
[1]
  inhibition: 70%
[2]
  inhibition: 22%
[3]
  inhibition: 8%
[4]
  inhibition: 19%
[5]
  inhibition: 28%
[6]
  inhibition: 44%

## Cc1ccccc1CC(=O)N1CCc2cc(-c3cn(C)c4ncnc(N)c34)ccc21
[1]
  inhibition: 97%
[2]
  inhibition: 34%
[3]
  inhibition: 0%
[4]
  inhibition: 0%
[5]
  inhibition: 0%
[6]
  inhibition: 58%

## COc1cccc(C2=C(Nc3cccc(Cl)c3)C(=O)NC2=O)c1
[1]
  inhibition: 13%
[2]
  inhibition: 0%
[3]
  inhibition: 0%
[4]
  inhibition: 5%
[5]
  inhibition: 1%
[6]
  inhibition: 0%
